Laboratory results as given in PMC10853936, “Heterologous investigation of metabotropic and ionotropic odorant receptors in ab3A neurons of Drosophila melanogaster” (Frontiers in Molecular Biosciences, 2024).

Molecular target: T1, CpomOrco (homomeric) (Cydia pomonella, UniProt H9A5M2)
T1 construct: full-length CDS in pcDNA5/TO, expressed alone in HEK293 cells (HEK293A in methods, HEK293T in results)
T1 sequence (H9A5M2 1-473): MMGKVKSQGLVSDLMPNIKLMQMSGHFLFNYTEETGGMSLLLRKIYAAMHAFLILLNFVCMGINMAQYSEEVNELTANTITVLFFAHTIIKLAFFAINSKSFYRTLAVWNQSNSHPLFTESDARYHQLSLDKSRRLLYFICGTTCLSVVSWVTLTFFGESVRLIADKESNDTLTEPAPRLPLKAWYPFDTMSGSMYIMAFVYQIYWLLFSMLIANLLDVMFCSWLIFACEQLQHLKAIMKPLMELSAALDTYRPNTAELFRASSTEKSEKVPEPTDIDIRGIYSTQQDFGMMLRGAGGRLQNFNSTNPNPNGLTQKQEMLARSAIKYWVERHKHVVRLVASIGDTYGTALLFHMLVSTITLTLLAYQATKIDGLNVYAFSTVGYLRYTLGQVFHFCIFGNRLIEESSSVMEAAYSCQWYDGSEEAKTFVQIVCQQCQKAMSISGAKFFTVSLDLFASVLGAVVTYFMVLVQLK
Test: Fluo-4 calcium imaging in HEK293 cells, Hill fit
Format: cell-based
Conditions: read-out: [VUAA1]1/2

`CCc1ccc(NC(=O)CSc2nnc(-c3cccnc3)n2CC)cc1` [VUAA1, acetamide, N-(4-ethylphenyl)-2-[[4-ethyl-5-(3-pyridinyl)-4H-1,2,4-triazol-3-yl]thio]-] gave an EC50 of 284 ± 39 µM.
